Measurements as given in patent publication US20220204971A1, “Compositions and Methods for Inhibiting Cancers and Viruses” (Icahn School of Medicine at Mount Sinai, priority 2018, published 2022).

Key:
HSATII = HSATII RNA RT-qPCR in HCMV-infected HFFs treated with CHX or GCV; type: cell-based, human; conditions: for HSATII levels: HFFs, HCMV 1 TCID50/cell, GCV added after 2 h
Method: FIGS. 2a-d disclose HSATII induction levels in cells infected with active virus as compared to UV-irradiated virus. a HFFs were infected with untreated or UV-irradiated HCMV (TB40/E-GFP) at 3 TCID50/cell, RNA samples were collected at specified times. b HFFs were treated with CHX or DMSO, as a solvent control, 24 h before HCMV (TB40/E-GFP) infection at 1 TCID50/cell. RNA samples were collected at 24 hpi. c HFFs were infected with HCMV (TB40/E-GFP) at 1 TCID50/cell for 2 h and then media was changed for one containing GCV or DMSO as a solvent control. RNA samples were collected at 24 and 48 hpi. d Tetracycline-inducible […] and/or IE2 MRC-5 and ARPE-19 cells were treated with doxycycline. RNA samples were collected at indicated times. a-d RT-qPCR was performed using HSATII-specific primers. GAPDH was used as an internal control. n=3. Data are presented as a fold change mean±SD. a-c ***P<0.001, ****P<0.0001 by the unpaired, two-tailed t-test with (b, c) or without (a) Welch's correction. ns—not significant. Open circles represent single data points.
(§1) Cyclohexamide (Sigma-Aldrich) and ganciclovir (Sigma-Aldrich) were dissolved in DMSO and used at 100 μg ml^−1 or 50 1.1M concentrations, respectively. Doxycycline (Sigma-Aldrich) was dissolved in water and used at 2 μg ml^−1. Puromycin was dissolved in water and used at 1.5 1.1 g ml^−1 (MRC-5) or 21.1 g ml^−1 (ARPE-19). G418 was dissolved in water and used at 800 μg ml-1 (MRC-5) or 1 mg ml-1 G418 (ARPE-19).
(§2) For quantitative reverse transcription PCR (qRT-PCR) analysis, cells were collected in QIAzol Lysis Reagent (Qiagen). To fractionate RNA, DNA and proteins chloroform was added; samples were spun at 12,000×g for 15 min. at 4° C. […] Quantitative PCR (qPCR) was performed using SYBR Green master mix (Applied Biosystems by Thermo Fisher Scientific, Foster City, Calif.) on the QuantStudio 6 Flex-Real Time PCR System (Applied Biosystems by Thermo Fisher Scientific). […]
(§3) Transcript levels were analyzed using the […] method and GAPDH or B2M were used as an internal control. […]

UL99 = UL99 late gene RNA RT-qPCR in HCMV-infected HFFs treated with GCV; type: cell-based; conditions: HCMV 1 TCID50/cell, 48 hpi
Method: FIG. 12 discloses the accumulation of UL99 gene RNA in the presence of DMSO or GCV in infected cells. HFFs were infected with HCMV (TB40/E-GFP; 1 TCID50/cell) for 2 h and then media was changed for one containing GCV or DMSO as a solvent control. RNA samples were collected at 48 hpi. RT-qPCR was performed using UL99-specific primers. GAPDH was used as an internal control. Data were averaged from at least three experiments and are presented as a fold change mean (SD).
as §1
as §2, with “(Qiagen).” for “(Qiagen). To fractionate RNA, DNA and proteins chloroform was added; samples were spun at 12,000×g for 15 min. at 4° C.”
as §3

HCMV (TB40-epi) = assay: HCMV infectious particle yield from LNA-transfected ARPE-19 epithelial cells, PFU/ml; type: cell-based; conditions: ARPE-19, PFU/ml; 96 hpi
Method: FIG. 26 discloses the effect of HSATII knockdown using four different HSAT-II LNAs on the production of HCMV infectious particles from human retinal pigment cells. Media samples were collected at 96 hpi from ARPE-19 cells transfected with NT-LNA or different HSATII-LNAs 24 h before HCMV (TB40-epi) infection at 1 TCID50/cell. PFU/ml values were determined. Data were averaged from at least three independent experiments and are presented as a mean (SD). Unpaired, two-tailed t-test was used to measure significance. One, two, three or four asterisks represent p<0.05, p<0.01, p<0.001 or p<0.0001, respectively.
Media samples were collected at 96 hpi from ARPE-19 cells transfected with NT-LNA or different HSATII-LNAs 24 h before HCMV (TB40-epi) infection at 1 TCID50/cell. PFU/ml values were determined. Data were averaged from at least three independent experiments and are presented as a mean (SD). […] Cells treated with the combined HSATII-LNA #1 and HSATII-LNA #2 produced only ˜0.6% of intracellular and ˜1% extracellular HCMV viral particles produced by control cells treated with NT-LNA. To compare, cells treated with HSATII-LNA #1 produced ˜33% of intracellular and ˜6% of extracellular HCMV viral particles produced by control cells treated with NT-LNA. Cells treated with HSATII-LNA #2 produced 23% of intracellular and 6% of extracellular HCMV viral particles produced by control cells treated with NT-LNA. Unpaired, two-tailed t-test was used to measure significance. One, two, three or four asterisks represent p<0.05, p<0.01, p<0.001 or p<0.0001, respectively.
Locked nucleic acid oligonucleotides were designed to target identified, highly abundant HSATII transcripts from different chromosomal loci. […] Cells were collected at the indicated time post infection using QIAzol buffer (QIAGEN, Hilden, Germany) and stored at −80° C. until sample processing.

| Molecule | extracellular HCMV viral particles, % of those produced by control cells treated with NT-LNA (HCMV (TB40-epi)) | intracellular HCMV viral particles, % of those produced by control cells treated with NT-LNA (HCMV (TB40-epi)) | other results |
| --- | --- | --- | --- |
| C[C@@H]1C[C@@H]([C@H](O)CC2CC(=O)NC(=O)C2)C(=O)[C@@H](C)C1 [Cycloheximide] | – | – | reduction of HSATII accumulation compared to solvent control (HSATII; HFFs treated with CHX 24 h before HCMV (TB40/E-GFP) infection at 1 TCID50/cell, 24 hpi): 33 fold |
| Nc1nc(O)c2ncn(COC(CO)CO)c2n1 [ganciclovir] | – | – | accumulation of RNA from the late UL99 gene (UL99): blocked; HSATII levels (HSATII; 24 hpi): did not change; HSATII levels (HSATII; 48 hpi): did not change |
| HSATII-LNA #1: locked nucleic acid oligonucleotide targeting HSATII transcripts, 5′-CCATTCGATAATTCCG-3′ (locked nucleic acid oligonucleotide, LNA positions and linkages not given here) | ~6% | ~33% | – |
| HSATII-LNA #2: locked nucleic acid oligonucleotide targeting HSATII transcripts, 5′-GATTCCATTCGATGAT-3′ (locked nucleic acid oligonucleotide, LNA positions and linkages not given here) | 6% | 23% | – |
